Converted amounts (≈) assume the structure as drawn. “And” between values parts separate entries of the source, which are not always exact repeats. Identical values can stand only once. Like-named read-outs stand apart in the source and are kept apart here.
How the values were obtained:
[1] = Dynamic light scattering, colloidal aggregation; format: physicochemical; conditions: measured at 10 µM, 1 µM and 100 nM, 25 °C, read-out: DLS maximum soluble concentration at which no aggregates are observed
Protocol: In addition, we measured particle sizes by using dynamic light scattering (DLS).
DLS is measured at 10 µM, 1µM and 100 nM. The maximum soluble
concentration – at which no aggregates are observed - is indicated and the colour code indicates
Dynamic Light Scattering:
Dynamic light scattering (Zetasizer Nano S, Malvern, UK) was used to determine compound colloidal aggregation. […] A 10 mM stock solution of
test compounds was prepared in DMSO, following dilution to deionized and filtered water to
obtain an analyte solution of 10 μM (0.1% DMSO). Colloidal aggregation was measured
through sequential dilutions at 10 μM, 1 μM and 0.1 μM.

Kasumi = test: Multi cell line growth assay (CellTiter-Glo, 72 h); format: cell-based, human; conditions: Blood, ND = no growth inhibition observed
Jurkat = test: Multi cell line growth assay (CellTiter-Glo, 72 h); format: cell-based, human; conditions: Blood, ND = no growth inhibition observed
DAUDI = test: Multi cell line growth assay (CellTiter-Glo, 72 h); format: cell-based, human; conditions: Lymphoid, ND = no growth inhibition observed
LNCaP = test: Multi cell line growth assay (CellTiter-Glo, 72 h); format: cell-based, human; conditions: Prostate, ND = no growth inhibition observed within the concentrations tested
[2] = pH 6.8
Source text: (§1) For assessment of drug permeability, we relied on parallel artificial membrane permeability assay (PAMPA) performed at Pion Inc. with the PAMPA Evolution™ instrument (Table S1, ESI ^†).
(§2) methods (ESOL model1 and Ali et al.2) PAMPA: Pe is effective permeability (x10-6 cm/sec)
(§3) measured directly from assay at pH 6.8 and %R is membrane retention.
(§4) as the average of quadruplicates. Und label refers to compounds with extremely low solubility
(§5) for which UV limits were below the detection limits therefore considered undetected.
(§6) Compounds were labelled as high permeability (green), medium permeability (orange) or low
(§7) Artificial Membrane Permeability (PAMPA):
(§8) The PAMPA Evolution™ instrument was used to determine permeability, at Pion Inc. In
(§9) PAMPA, a sandwich is formed such that each composite well is divided into two chambers,
(§10) measured at pH 6.8 in the donor compartment using low-binding, low UV Prisma buffer. The
(§11) drug-free acceptor compartment was filled with acceptor sink buffer containing a scavenger at
(§12) the start of the test. The proprietary scavenger mimics serum proteins and blood circulation,
(§13) thus creating sink conditions. Aqueous solutions of studied compounds are prepared by diluting
(§14) and thoroughly mixing 3 µL of DMSO stock in 600 µL of Prisma HT buffer. Final
(§15) concentration of organic solvent (DMSO) in aqueous buffer is ≤ 0.5% (v/v). The reference
(§16) solution is identical to the donor at time zero, so that any surface adsorption effects from the
(§17) plastic ware is compensated. The PAMPA sandwich was assembled and allowed to incubate
(§18) for ~15 hours. The solutions in the donor compartment were un-stirred within duration of the
(§19) experiment. Thus, the thickness of the aqueous boundary layer expected to be about 1000 µm.
(§20) The sandwich was then separated, and both the donor and receiver compartments were assayed
(§21) for the amount of drug present by comparison with the UV spectrum obtained from reference

CAOV3 = test: Multi cell line growth assay (CellTiter-Glo, 72 h); format: cell-based, human; conditions: ND = no growth inhibition observed
SK-N-MC = test: Multi cell line growth assay (CellTiter-Glo, 72 h); format: cell-based, human; conditions: Brain, ND = no growth inhibition observed
22 RV1 = test: Multi cell line growth assay (CellTiter-Glo, 72 h); format: cell-based, human; conditions: ND = no growth inhibition observed
RS4(11) = test: Multi cell line growth assay (CellTiter-Glo, 72 h); format: cell-based, human; conditions: ND = no growth inhibition observed
BMX [3] = biological target: T1, BMX (Homo sapiens, UniProt P51813); test: BMX biochemical activity assay (HTRF, phosphorylation of a biotinylated peptide)
T1 sequence (P51813 1-675): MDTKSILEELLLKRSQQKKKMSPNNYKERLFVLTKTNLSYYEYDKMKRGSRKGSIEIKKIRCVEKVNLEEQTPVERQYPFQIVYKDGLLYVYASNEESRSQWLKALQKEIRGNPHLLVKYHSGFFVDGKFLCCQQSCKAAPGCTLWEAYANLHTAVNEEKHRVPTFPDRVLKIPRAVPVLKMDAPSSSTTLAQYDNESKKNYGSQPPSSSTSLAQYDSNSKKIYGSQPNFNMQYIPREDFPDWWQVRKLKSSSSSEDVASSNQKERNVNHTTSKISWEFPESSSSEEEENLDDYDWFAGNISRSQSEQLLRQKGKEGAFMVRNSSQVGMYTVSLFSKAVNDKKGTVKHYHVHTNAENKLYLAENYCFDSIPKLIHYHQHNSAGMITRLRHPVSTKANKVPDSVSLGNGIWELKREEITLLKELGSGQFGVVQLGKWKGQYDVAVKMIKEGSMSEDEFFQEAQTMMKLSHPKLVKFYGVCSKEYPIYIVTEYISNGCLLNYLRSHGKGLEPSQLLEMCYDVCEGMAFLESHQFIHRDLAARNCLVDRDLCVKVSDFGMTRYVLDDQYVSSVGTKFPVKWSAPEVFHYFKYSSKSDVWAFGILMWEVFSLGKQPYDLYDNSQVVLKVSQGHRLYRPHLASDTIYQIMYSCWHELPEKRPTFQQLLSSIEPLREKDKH

H1299 = test: Multi cell line growth assay (CellTiter-Glo, 72 h); format: cell-based, human; conditions: Bone marrow (so in the source), ND = no growth inhibition observed
PC3 cells = test: PC-3 cell growth assay (CellTiter-Glo, 96 h); format: cell-based; conditions: Homo sapiens, read-out: GI50 PC3
Protocol: (§22) GI50 values are reported in μM and are the mean of three individual experiments performed in triplicate. N.d., non-determined, no growth inhibition observed within the concentrations tested.
(§23) Cellular activity Assay: LNCaP and PC-3 Cell Growth Assay
(§24) Cells were seeded in white, opaque-bottom 96-well plates at 5000 cells/well (LNCaP) or 2000 cells/well (PC-3) in a total volume of 100 µL of culture media.
(§25) fold) in 100 µL media were added to the cells 24 hours later. After 96 hours incubation cellular viability was assessed by CellTiter-Glo® (Promega) according to the manufacturer’s instructions. The values were normalized to vehicle and IC50 was calculated using GraphPad

LNCaP cells [4] = test: Anti-proliferative co-treatment assays in LNCaP; format: cell-based; conditions: JS24 3 μM, JS25 5 μM, JS26 6 μM, 5 days
in vitro = conditions: PAMPA
Source text: as §1, §2, §3, §4, §5, §6, §7, §8, §9, §10, §11, §12, §13, §14, §15, §16, §17, §18, §19, §20, §21

LNCaP cells [5] = test: LNCaP cell growth assay (CellTiter-Glo, 96 h); format: cell-based; conditions: Homo sapiens, read-out: GI50 LNCaP
Protocol: as §22, §23, §24, §25

BMX [6] = biological target: T1, BMX; test: Kinetic characterization with ADP-Glo kinase assay; format: biochemical; set-up: purchased Promega Corporation (USA) V4512; conditions: duplicate, mean ± S.D.
Source text: The inactivation of BMX occurs in a two-step process that is governed by two parameters: the affinity of the initial non-covalent binding, KI, and the rate of the subsequent covalent bond-forming reaction with the thiol of the cysteine residue, kinact. […]. […] Thus, taking into account that all the analogues have the same Michael acceptor moiety, the enhanced activity must be a result of the structural modifications introduced in the scaffold. […]
Kinetic characterization using an ADP-GLOTM kinase assay:
The BMX enzyme system (Catalog. V4512) and the ADP-GloTM kinase assay were purchased from Promega Corporation (USA). In each kinase reaction, the concentration of BMX was set to 4.5 ng/µL. The peptide substrate Poly (4:1 Glu, Tyr) and ATP concentrations were set to 0.25 mg/mL and 50 µM, respectively. BMX was pre-incubated with different inhibitor concentrations (10-fold serial dilutions, starting at 1 mM), over different time periods (2 - 60 min), before initiating the kinase reactions. Reactions were started by adding 2.5X Poly E4Y1/ATP mixture. The reactions were carried out in a 384-well plate, stopping all at the same time with the addition of 5 µL of ADP-GloTM reagent, to consume the remaining ATP within 40 min. Then, 10 µL of kinase detection reagent was added into the wells and incubated for 30 min to produce a luminescence signal. The signal was measured using an Infinite M200 […]
observed rate constants for inhibition (kobs), at different inhibitor concentrations, were determined from the slope of a semi-logarithmic plot of inhibition versus time, and re-plotted against inhibitor concentration (nM). The experimental values were fitted into a hyperbolic function using GraphPad Prism 8 ([…]), to obtain the KI, kinact, and kinact/KI, as described previously.12 […]
(Thermo Fisher Scientific) using gold-coated glass needles. […]

[7] = biological target: T2, recombinant human BMX protein (hBMX) (Homo sapiens, UniProt P51813); test: Differential scanning fluorimetry (DSF); format: binding; conditions: 100 μM compound; for ΔTm at 100 µM: read-out: ΔTm; for Average Tm of BMX with compound: apo-BMX Tm 51.8-52.2 °C
T2 construct: Crystallization, data collection, and structure determination of BMX catalytic domain in; made in house; host or cells: Sf-9 insect cells
Protocol: We further characterized the binding interaction between JS24–JS27 and BMX by using differential scanning fluorimetry (DSF) and surface plasmon resonance (SPR). Purified recombinant human BMX protein (hBMX) was first subjected to thermal scanning in the absence and presence of JS24–JS27, and the respective protein melting temperature (Tm) calculated.
Differential Scanning Fluorimetry:
DSF was performed in MicroAmp™ EnduraPlate™ Optical 96 -Well Clear Reaction Plates
with Barcode (Applied Biosystems, Life Technologies, California, USA) using a QuantStudio
7 Flex Real-Time PCR System (Applied Biosystems). Pre-incubation of the protein with the
compound for 2 hours at 4 °C was required prior to DSF experiments. The final reaction mixture
(20 μL of total volume) contained 4 μg of His6-BMX, 4-fold of Protein Thermal Shift™ Dye
(Applied Biosystems) diluted in protein buffer solution, and 100 μM of compound. The
temperatures were obtained by taking the midpoint of each transition.

His6-hsBMX = biological target: T3, His6-hsBMX (Homo sapiens, UniProt P51813); test: Surface plasmon resonance (SPR); format: binding
T3 construct: Crystallization, data collection, and structure determination of BMX catalytic domain in; made in house; host or cells: Sf-9 insect cells
Source text: response upon compound injection (t=0s), or upon washing (t=220s), on immobilized His6-
hsBMX surfaces. Compound concentrations injected on already saturated surfaces were not
included in the 1:1 Langmuir fitting model. X-axis: time (s); y-axis: response (arbitrary units).
Inset plots [x-axis: compound concentration (M); y-axis: response (arbitrary units)] show the
steady-state affinity (KDss) fit for the interactions wherein equilibrium was reached.
Surface Plasmon Resonance:
The kinetic and affinity parameters of protein-compound interaction were evaluated by SPR.
Experiments were carried out in a Biacore 4000 instrument (Biacore AB, GE Healthcare Life
Sciences, Uppsala, Sweden) at 25 °C. His6-BMX protein was diluted to 10 µg/mL in sodium
acetate pH 5.5, in the presence of 5 µM staurosporine and immobilized onto CM5 (Series S)
sensor chips, using the standard amine coupling procedure. Prior to immobilization, the
carboxymethylated surface of the chip was activated with 400 mM 1-ethyl-3-(3-
dimethylaminopropyl)-carbodiimide and 100 mM N-hydroxysuccinimide for 10 min. HBS-N
(10 mM HEPES pH7.4, 150mM NaCl) was used as the background buffer. Protein was coupled
to the surface after 2 to 10 min injection times, at a flow rate of 10 µL/min, in order to reach
1500 to 3500 response units (RU). The remaining activated carboxymethylated groups were
blocked with a 7 min injection of 1 M ethanolamine pH 8.5. Compounds were pre-diluted in
DMSO to 50x the desired highest tested concentration and diluted afterwards in running buffer
(20 mM HEPES pH 7.4, 150 mM NaCl, 1 mM DTT, 0.1 mM EGTA, 0.05 % (v/v) TWEEN-
20, 5 mM MgCl2) in order to reach 2% of DMSO concentration. A DMSO solvent correction
(1% - 3%) was performed to account for variations in bulk signal and to achieve high-quality
data. Each compound was injected over immobilized His6-BMX for 220 s (30 µL min-1;
association phase) followed by 600 to 2000 s of buffer flow (dissociation phase) at a maximum
five times in 2-fold dilution series. All sensorgrams were processed by first subtracting the
binding response recorded from the control surface (reference spot), followed by subtracting
the buffer blank injection from the reaction spot. All datasets were fit to a simple 1:1 Langmuir
interaction model with the provided Biacore 4000 Evaluation software, to determine kinetic rate constants (kon, koff) or steady-state affinity (KDss).

PC3 = test: Multi cell line growth assay (CellTiter-Glo, 72 h); format: cell-based, human; conditions: ND = no growth inhibition observed
U-87MG = test: Multi cell line growth assay (CellTiter-Glo, 72 h); format: cell-based; conditions: Homo sapiens, Brain, ND = no growth inhibition observed
[8] = biological target: NanoLuc®-BMX fusion vector in HEK293 cells (Homo sapiens, UniProt P51813); test: NanoBRET TE intracellular kinase assay; format: cell-based; conditions: HEK293 transiently transfected with BMX; 1 h; duplicate, mean ± S.D.; read-out: intracellular target engagement IC50
Protocol: Target Engagement Intracellular Kinase Assay:
In-cell target engagement was performed at the Reaction Biology Corporation (USA) using the NanoBRETTM technology. Very briefly, HEK296 cells, purchased from ATCC, were
with the reference compound Dasatinib, for 1 hour of incubation. Compounds were diluted 10 times with 3-fold dilution, starting at 1 µM. Curve fits were performed only when % NanoBret
determined using the GraphPad Prism 8 (USA).

[9] = biological target: T4, wild-type BMX in PC3 cells (Homo sapiens, UniProt P51813); test: BMX degradation assay in PC3 cells (Western blot); format: cell-based; conditions: 10 μM; 24 h and 72 h; band intensity normalized to α-Tubulin
T4 construct: endogenous in cells; host or cells: PC3 prostate cancer cells (wild-type, untransfected)
Protocol: The cell proliferation depends on BMX kinase activity that was used to monitor the cellular activity of the compounds (IC50). […].  Fig. 5 (a) Intracellular target engagement in HEK293 cells transiently transfected with BMX expressing NanoLuc®-BMX fusion vector with Promega's NanoBRET™ TE Intracellular Kinase Assay. […] Band intensity was measured using ImageJ and normalized with α-Tubulin band intensity. […] Data are mean ± standard deviation obtained from at least three independent measurements (n = 3). See ESI ^† for additional data and analysis. […] | page 12: […]
degradation assay. Protein band intensity normalized with α-Tubulin band intensity and quantified using ImageJ. Data was obtained from at least three independent measurements […]
concentration against PC3 cells, plated on 6-well plates, a day after attachment. DMSO was used as a control vehicle. At 24 h and 72 h of incubation, cells were washed in 1X PBS and lysed in 100 µL RIPA Buffer (in house) supplemented with EDTA-free Protease Inhibitor Cocktail (Merk) and DNase I (Merk). The lysis procedure was performed by re-suspending cells continuously, followed by a incubation of 30 min on ice. BMX antibody (Abcam) and tubulin antibody (Cell signaling Technology) were used in the Western blot. Band intensity […]

MDA-MB-231 = test: Multi cell line growth assay (CellTiter-Glo, 72 h); format: cell-based; conditions: Homo sapiens, Breast, ND = no growth inhibition observed
DU145 = test: Multi cell line growth assay (CellTiter-Glo, 72 h); format: cell-based; conditions: Homo sapiens, DU-145, Prostate, ND = no growth inhibition observed
[10] = Experiment 1 of Fig. S3, control JS9A (in-house BMX-IN-1), read-out: BMX IC50
[11] = deionized and filtered water (0.1% DMSO), kinetic from dmso stock
[12] = pH 6.8, PAMPA/Pe effective permeability
[13] = Experiment 4 of Fig. S3 = Fig. 1b, duplicate, mean ± S.D., read-out: BMX inhibition IC50

| Structure (SMILES) | solubility ([1]; water) [µM] | GI50 (Kasumi) [µM] | GI50 (Jurkat) [µM] | GI50 (DAUDI) [µM] | GI50 (LNCaP) [µM] | PAMPA/%R membrane retention [2] [%] | PAMPA/Pe effective permeability [2] | GI50 (CAOV3; Ovary) [µM] | GI50 (SK-N-MC) [µM] | GI50 (22 RV1; Prostate) [µM] | GI50 (RS4(11); Lung (so in the source)) [µM] | IC50 (BMX [3]; [10]) [µM] | solubility [1, 11] [µM] | Papp (in vitro; pH 6.8, PAMPA permeability) [×10⁻⁶ cm/s] | Papp (in vitro; [12]) [×10⁻⁶ cm/s] | ΔTm at 100 µM ([7]; versus apo-BMX) [°C] | Average Tm of BMX with compound [7] [°C] | IC50 (BMX [3]; [13]) | further results |
| --- | --- | --- | --- | --- | --- | --- | --- | --- | --- | --- | --- | --- | --- | --- | --- | --- | --- | --- | --- |
| CC=CC(=O)Nc1cc(-n2c(=O)ccc3cnc4ccc(-c5ccc(NS(C)(=O)=O)cc5)cc4c32)ccc1C [JS10] | 0.1 (≈ 0.0539 µg/mL) | 4.37 ± 0.04 | 9.71 ± 1.48 | 2.57 ± 0.09 | 9.7 | 33±4 | 28±4 x10-6 cm/sec | 17.3 | 11.2 | 4.86 ± 0.11 | 5.06 | 21 ± 7.25 |  |  |  |  |  |  | BMX potency loss (fold) against control BMX-IN-1 (BMX [3]; relative to the control of the same set of experiments): 58 fold; GI50 (H1299): 19.4 µM |
| C=CC(=O)Nc1cccc(-n2c(=O)ccc3cnc4cc(-c5ccc(NS(C)(=O)=O)cc5)ccc4c32)c1 [JS26] |  |  |  |  |  | 8±14 |  |  |  |  |  |  | ≥ 10 | 19 | 19 ± 13 | 9.34 ± 0.21 | 61.47±0.21 | 0.0091 µM | GI50 (PC3 cells; PC-3, 96 h, 96-well plates, N.d. = no growth inhibition observed within the concentrations tested): 10.1 ± 1.3 µM; decrease in cell viability (LNCaP cells [4]; co-treatment with AKT1/2 (1 μM), relative to control AKT1/2): 63%; decrease in cell viability (LNCaP cells [4]; co-treatment with LY294002 (3 μM)): 35%; GI50 (LNCaP cells [5]; 96-well plates, mean of three experiments in triplicate): 7.7 µM; k inact (BMX [6]): 0.443 min⁻¹ and 0.443 ± 0.003 min⁻¹; LE (BMX) (BMX [3]; ligand efficiency): 0.30; LipE (BMX) (BMX [3]; lipophilic efficiency): 4.45; koff (His6-hsBMX; 1:1 Langmuir fit, 25 °C): < 0.0001 s⁻¹; kon (His6-hsBMX; 1:1 Langmuir fit, 25 °C): 72000 M⁻¹ s⁻¹ |
| CC(C)=CC(=O)Nc1cc(-n2c(=O)ccc3cnc4ccc(-c5ccc(NS(C)(=O)=O)cc5)cc4c32)ccc1C [JS11] | 0.1 (≈ 0.0553 µg/mL) | 10.14 ± 0.07 | 6.36 ± 0.17 | 4.57 ± 0.12 | 10.4 | 54±9 | 31±4 x10-6 cm/sec | 19.3 | 8.24 | 7.3 | 6.66 |  |  |  |  |  | 52.26±0.11 |  | GI50 (PC3; Prostate): 20.1 µM; ΔTm ([7]; versus apo-BMX): 0.34±0.11 °C |
| C=CC(=O)Nc1cc(-n2c(=O)ccc3cnc4ccc(-c5ccc(NS(C)(=O)=O)cc5)cc4c32)ccc1C [BMX-IN-1, reference compound] |  |  |  |  |  | 55±8 |  |  |  |  |  | 0.36 ± 0.024 | ≥ 10 | 8.9 | 8.9 ± 0.8 | 8.04 ± 0.32 | 60.17±0.32 | 0.0502 µM and 0.05 µM | GI50 (Kasumi; Homo sapiens): 3.13 ± 0.06 µM; GI50 (Jurkat; Homo sapiens, Jurkat): 5.99 µM; GI50 (DAUDI; Homo sapiens, Daudi): 1.68 ± 0.07 µM; GI50 (U-87MG): 5.33 ± 0.19 µM; GI50 (LNCaP; Homo sapiens, LNCaP): 1.81 ± 0.05 µM; IC50 [8]: 0.495 µM; GI50 (PC3 cells; PC-3, 96 h): 11.5 ± 2.2 µM; GI50 (CAOV3; Homo sapiens, Caov-3, Ovary): 7.68 ± 0.13 µM; GI50 (SK-N-MC; Homo sapiens, SK-N-MC): 2.36 µM; degradation of BMX protein [9]: induce degradation of wild-type BMX in PC3 cells; GI50 (LNCaP cells [5]): 1.7 µM; GI50 (PC3; Homo sapiens, PC-3, Prostate): 11 ± 1.13 µM; GI50 (22 RV1; Homo sapiens, 22Rv1, Prostate): 2.07 ± 0.06 µM; GI50 (RS4(11); Homo sapiens, RS4-11, Lung (so in the source)): 1.18 ± 0.06 µM; GI50 (MDA-MB-231): 23.6 ± 0.48 µM; IC50 (BMX [3]; Experiment 2 of Fig. S3, control commercial BMX-IN-1, read-out: BMX IC50): 0.055 ± 0.035 µM; IC50 (BMX [3]; Experiment 3 of Fig. S3, control commercial BMX-IN-1, read-out: BMX IC50): 0.23 ± 0.0345 µM; GI50 (DU145): 17.7 µM; Kd (His6-hsBMX; from kinetic constants): 0.069 µM |

— article PMC8341910, “Structural and biophysical insights into the mode of covalent binding of rationally designed potent BMX inhibitors” (RSC Chemical Biology, 2020)
